Results published in ChEMBL document CHEMBL3988442, “University of Dundee, Small-Polar-MMV Screening Library” (2021).

Tested on: Schistosoma mansoni
Experiment: High throughput screening of compounds against Schistosoma mansoni motility
Type: functional
Design: dose or concentration left out as unconfirmed

CSCCC(=O)N1CCC(Oc2cc(C)ccc2F)(C(=O)O)CC1
Percent Effect: 12.24%

Cc1cccc(C(=O)N2CCN(S(C)(=O)=O)[C@@H](C)C2)c1C
Percent Effect: -56.44%

Cn1c(Cn2cccn2)nnc1C1CCN(Cc2cccnc2N)CC1
Percent Effect: -7.123%

O=C(CCCc1cn[nH]c1)N1CCOCC(O)C1 (stereo not drawn)
Percent Effect: -19.59%

CS(=O)(=O)N1CCc2nc(NC(=O)Nc3c(F)cccc3F)sc2C1
Percent Effect: -37.65%

CS(=O)(=O)CCSc1cccc(C#N)c1
Percent Effect: -35.13%

O=C(c1cc(=O)[nH]c(=O)[nH]1)N1CCCCC1c1nc2cc(F)ccc2[nH]1 (stereo not drawn)
Percent Effect: -2.098%

O=C(NCC1CC1)C1CSCN1S(=O)(=O)c1cccc(F)c1 (stereo not drawn)
Percent Effect: -77.75%

CCN1CC(C(=O)NCc2ccnc(-n3ccnc3C)c2)CC1=O (stereo not drawn)
Percent Effect: -29.1%

CN(CCCc1cnn(C)c1)C(=O)C1CCOC1 (stereo not drawn)
Percent Effect: -54.96%

O=C(CSCC1CC1)N1CCCC(c2nccn2Cc2ccncc2)C1 (stereo not drawn)
Percent Effect: 9.639%

CCC(=O)N1CCC(c2nnc(Cn3cncn3)n2C2CC2)CC1
Percent Effect: -42.58%

CN(C)C(CNS(=O)(=O)c1ccc(F)cc1F)c1cccn1C (stereo not drawn)
Percent Effect: 13.79%

CNC(=O)CCNC(=O)c1cccc(Cn2nc(C)cc2C)c1
Percent Effect: -2.451%

CN(C)Cc1nnc(C2CCN(c3nccc(N)n3)CC2)n1C1CC1
Percent Effect: -22.89%

CC(=O)Nc1cccc(C(=O)Nc2cnc3n2CCCC3)c1
Percent Effect: -24.57%

CC(C)(C)C(=O)NCCn1ccc(-c2ccncc2)n1
Percent Effect: -55.77%

O=C(c1cccnc1)N1C[C@@H]2CC[C@H](C1)N(Cc1ncc[nH]1)C2
Percent Effect: -27.62%

CN(C)C(=O)c1ccc2c(c1)N(C)C(CC(=O)NCc1ccno1)CO2 (stereo not drawn)
Percent Effect: 0.8383%

Cc1noc(-c2ccc(N3CCCC(C(=O)N4CCSCC4)C3)nc2)n1 (stereo not drawn)
Percent Effect: 26.74%

COc1ccc(NC(=O)N2CCN(c3ncccn3)CC2)cn1
Percent Effect: -75.2%

Cc1nc(C)n(CC2CN(CC(=O)Nc3cccnc3)CCO2)n1 (stereo not drawn)
Percent Effect: -4.464%

CCCNC(=O)CSc1nnc2[nH]c(=O)cc(CC)n12
Percent Effect: -63.88%

O=C(CCCc1cn[nH]c1)N1C[C@@H](CN2CCOCC2)[C@@H](CO)C1
Percent Effect: -60.63%

Cc1cccc(C2(C(=O)NCCCn3cccn3)CC2)c1
Percent Effect: -39.94%

O=C(CSc1ncccn1)N1C[C@H]2CC[C@@H]1CN(Cc1ccncc1)C2
Percent Effect: -45.84%

O=c1nc(SCc2cccnc2)c2c(n1CCO)CCC2
Percent Effect: -102.8%

COCCN(Cc1ccc(F)cc1Cl)C(=O)c1ccncc1
Percent Effect: -38.63%

Cc1cc(C(=O)N2CCCC2c2nnc3n2CCCCC3)no1 (stereo not drawn)
Percent Effect: -2.272%

O=C(NCCN1CCC(c2cccs2)CC1)c1ccccc1C(F)(F)F
Percent Effect: 2.003%

Cc1ccc(CC(=O)N2CCOC(c3nc(C(C)(C)C)n[nH]3)C2)cn1 (stereo not drawn)
Percent Effect: 7.474%

CC(CN1CCOCC1)NCc1nncn1C1CCCCC1 (stereo not drawn)
Percent Effect: 0.8698%

Cc1nc(C)n(CC2CCCCN2CC(=O)Nc2cccnc2)n1 (stereo not drawn)
Percent Effect: -10.51%

CCSc1cc(C(=O)NCCC(=O)Nc2ccccn2)ccn1
Percent Effect: -76.69%

CCc1cc(=O)[nH]c2nnc(SCC(=O)OC)n12
Percent Effect: -72.76%

COCCCC1CCCN(C(=O)CCc2cc(O)no2)C1 (stereo not drawn)
Percent Effect: 4.573%

Cc1ccc(NC(C)C(=O)NCc2cccs2)cc1C (stereo not drawn)
Percent Effect: -60.11%

CN(Cc1ccccc1)CC1(O)CCCN(CC(C)(C)C)C1=O (stereo not drawn)
Percent Effect: 9.775%

O=C(CCn1cnnc1)N1CCCC(c2ncc[nH]2)C1 (stereo not drawn)
Percent Effect: -28.96%

Cc1cnccc1N1CCCN(C(=O)CCCS(N)(=O)=O)CC1
Percent Effect: -57.05%

CS(=O)(=O)NCCNC(=O)C1(c2cccc(Cl)c2)CC1
Percent Effect: 21.58%

Cc1nn(C)c(N(C)C)c1CNCC(O)COc1ccccc1.Cl (stereo not drawn)
Percent Effect: -91.65%

Cc1nc(CN2CCc3cncnc3C2)oc1C
Percent Effect: -26.27%

O=S(=O)(Cc1ccccc1)NCc1ccco1
Percent Effect: -25.54%

CCOc1ncccc1NC(=O)c1cc(C)c(C)s1
Percent Effect: -34.96%

O=C(c1ccccn1)N1CCCC(c2nccn2CC2CCC2)C1 (stereo not drawn)
Percent Effect: -9.087%

CC1CCCN(CCNC(=O)c2cncnc2C(C)C)C1 (stereo not drawn)
Percent Effect: -12.57%

CCc1ncc2c(n1)CN(Cc1nnc(C)o1)CC2
Percent Effect: -12.75%

CCC(C)N(C)S(=O)(=O)c1ccc(CCNC(C)=O)s1 (stereo not drawn)
Percent Effect: -44.53%

O=c1nc(SCc2ccncc2)c2c(n1CCO)CCCC2
Percent Effect: -51.22%

Cl.Cl.OC(CN1CCN(Cc2ccc(F)cc2)CC1)C1CC1 (stereo not drawn)
Percent Effect: -83.95%

CC(C)(C)c1ccn(C2(C(=O)O)CCN(c3nccc(N)n3)CC2)n1
Percent Effect: 14.42%

OC1CCN(Cc2cc3c(cc2Br)OCCO3)CC1
Percent Effect: 8.478%

O=C(c1ccc(Br)o1)N1CCCC(n2cncn2)C1 (stereo not drawn)
Percent Effect: -24.61%

COc1ccccc1S(=O)(=O)N1CCC(Oc2cccnn2)CC1
Percent Effect: -19.77%

CC[C@@]1(O)CCN(C(=O)c2ccc(SC)cc2)C[C@H]1O
Percent Effect: 20.95%

Cc1nn(C)c(N(C)C)c1CNCC(O)COc1ccc(F)cc1 (stereo not drawn)
Percent Effect: -41.92%

COC(=O)c1ccc2ccn(CC3CCNC3)c(=O)c2c1 (stereo not drawn)
Percent Effect: -40.15%

CCCNC(=O)CNC(=O)CCc1ccccc1Br
Percent Effect: 24.36%

CSc1ccccc1CN1CCn2nc(CNC(C)=O)cc2C1
Percent Effect: -11.64%

CCc1nnc2n1CCN(C(=O)c1csc(-c3cnn(C)c3)n1)C2
Percent Effect: -4.866%

Cc1nc2n(n1)CC(Nc1cc(C(F)(F)F)nc3ncnn13)CC2 (stereo not drawn)
Percent Effect: -11.7%

O=C(CCc1cscn1)NS(=O)(=O)c1ccc2c(c1)CCC2
Percent Effect: 28.79%

CCc1ccc(C(=O)Nc2ccc(CC3CC(=O)NC3=O)cc2)cc1 (stereo not drawn)
Percent Effect: -47.76%

Cc1cc(N2CCN3CCCCC3C2)n2nc(C)c(C)c2n1 (stereo not drawn)
Percent Effect: -7.768%

Cc1csc(N2CCN(Cc3ccccn3)CC2C)n1 (stereo not drawn)
Percent Effect: -63.75%

COc1ccc(CNC(=O)NCC2CCOC2)c(C(F)(F)F)c1 (stereo not drawn)
Percent Effect: -32.81%

O=C(Nc1nc2c(s1)CN(S(=O)(=O)C1CC1)CC2)c1c(F)cccc1F
Percent Effect: 15.1%

O=C(Cc1ccc(O)c(Cl)c1)N1CCN(CC2CC2)[C@@H]2CS(=O)(=O)C[C@@H]21
Percent Effect: -40.54%

Cc1nn(C)c(C)c1C1COCCN1C(=O)Cc1cccc(F)c1 (stereo not drawn)
Percent Effect: -11.98%

O=C(c1cc(Cl)cc(Cl)c1)N1CCN(c2nccs2)CC1
Percent Effect: -19.81%

O=C(CSc1ccc2c(c1)OCCO2)NS(=O)(=O)C1CCCCC1
Percent Effect: 7.796%

Cc1cccnc1NC(=O)CSc1ccc2c(c1)OCCO2
Percent Effect: -40.06%

C[C@@H]1CN(C2(C(=O)N3CCOCC3)Cc3ccccc3C2)C[C@H](C)O1
Percent Effect: 12.59%

Cc1ccsc1CN(CCN(C)C)Cc1ccccn1
Percent Effect: -19.12%

CCOCCOc1ccccc1C(=O)N1CCCC(c2ncc[nH]2)C1 (stereo not drawn)
Percent Effect: -53.5%

O=C(Cc1cccs1)NC1CCN(c2cccc(F)c2)CC1
Percent Effect: -37.43%

COCCN1C(=O)CC(N2CCN(c3ccc(OC)cc3)CC2)C1=O (stereo not drawn)
Percent Effect: -42.76%

CCCc1nnsc1C(=O)NCC1CCN(S(C)(=O)=O)CC1
Percent Effect: -25.98%

CC(C)(C)NC(=O)CNC(=O)CCc1ccccc1Br
Percent Effect: 20.34%

Cc1n[nH]c(C)c1C1COCCN1C(=O)Cc1cccc(F)c1 (stereo not drawn)
Percent Effect: -66.08%

CCc1noc(C(C)N(C)CC(=O)Nc2c(C)cccc2C)n1 (stereo not drawn)
Percent Effect: -71%

CCC1CN(C(=O)c2ccc(=O)[nH]c2)CCC(=O)N1Cc1ccccc1 (stereo not drawn)
Percent Effect: -27.12%

COC(=O)CN1CC(c2nc(Cc3ccccc3)no2)C1.O=C(O)C(=O)O
Percent Effect: -0.4449%

CC(OCC(F)(F)F)C(=O)N1CCCCC1 (stereo not drawn)
Percent Effect: -17.04%

Cn1c(C(F)(F)F)nn(CCNC(=O)CSCc2ccccc2)c1=O
Percent Effect: -2.069%

Cc1cc(CC(=O)N2CCCC2c2nc(C(C)C)no2)on1 (stereo not drawn)
Percent Effect: -26.98%

CCc1ncc2c(n1)CN(C(=O)COC)C2
Percent Effect: -20.5%

COCCNS(=O)(=O)c1cccc2c1CN(C(=O)c1ccccc1)CC2
Percent Effect: 10.23%

COc1cccc(N2CCN(Cc3ccc(NC(C)=O)cc3)CC2=O)c1
Percent Effect: -11.44%

Cc1cnn(CCC(=O)N2CCOC(c3nc(C(C)(C)C)n[nH]3)C2)c1 (stereo not drawn)
Percent Effect: -4.27%

CCCc1cc(NC2CCc3ncnn3C2)n2ncnc2n1 (stereo not drawn)
Percent Effect: -6.308%

COc1ccc(OC)c(CNCCc2cc(F)cc3c2OCOC3)c1
Percent Effect: 89.81%

CCC1c2cccn2CCN1C(=O)c1ccc2nonc2c1 (stereo not drawn)
Percent Effect: -19.69%

Cc1csc(N2CCN(Cc3cnc(C)s3)CC2C)n1 (stereo not drawn)
Percent Effect: -30.28%

CC(C)S(=O)(=O)NCC1CCCN(C(=O)c2ccc3c(c2)OCCO3)C1 (stereo not drawn)
Percent Effect: -47.11%

Cn1c(CN2CCN(CC3CC3)CC2)nnc1C1CCC1
Percent Effect: -23.98%

COc1ccc(F)cc1S(=O)(=O)NCC(c1cccn1C)N(C)C (stereo not drawn)
Percent Effect: -13.44%

CCn1c(N)nc2cc(C(=O)NCCc3ccccc3C)cnc21
Percent Effect: -46.13%

Cc1n[nH]c(C2CN(CC(=O)NCCc3ccsc3)CCO2)n1 (stereo not drawn)
Percent Effect: -117.4%

Cc1ccccc1S(=O)(=O)NC(=O)CSc1ccc2c(c1)OCCO2
Percent Effect: -27.11%

N#Cc1ccc(OC2CCN(C(=O)c3ccc4c(c3)OCO4)CC2)nc1
Percent Effect: -46.44%

O=C1OCCN1CCOc1nc(-c2ccccc2Cl)no1
Percent Effect: -41.52%

COCCN1CCN(C(=O)c2cc(C(C)C)on2)[C@H]2CS(=O)(=O)C[C@H]21
Percent Effect: 3.129%

Cc1nc(CN2CCCC(N(C)CCc3cccs3)C2)no1 (stereo not drawn)
Percent Effect: -59.95%

Cc1cc(NC(=O)CN2CCCC2c2noc(C3CC3)n2)no1 (stereo not drawn)
Percent Effect: -30.12%

CN(C)C(=O)c1ccc2c(c1)N(C)C(CC(=O)NCCC(C)(C)C)CO2 (stereo not drawn)
Percent Effect: -13.7%

CCCN1CCC(NC(=O)c2ccc(F)cc2I)CC1
Percent Effect: 16.82%

C1CC1c1nsc(N2CCN(C3CC3)CC2)n1
Percent Effect: -51.78%

CCC(=O)N1CCc2[nH]cnc2C12CCN(C(=O)CCS(C)(=O)=O)CC2
Percent Effect: -12.74%

Fc1ccccc1-c1noc2c1CN(CC1CC1)CC2
Percent Effect: -95.25%

CCc1nc(C2CCCN2CC(=O)Nc2c(C)nn(C)c2C)no1 (stereo not drawn)
Percent Effect: -35.66%

c1ccc(-c2noc3c2CN(CC2CC2)CC3)cc1
Percent Effect: -116.8%
